Test results as given in PubChem BioAssay AID1963871 (Molecular Pharmacology Branch, DTP, NCI, 2024).

Test system: KRAS-mutant PDC multicell tumor spheroid viability
Assay: Anticancer human tumor 521955-158-R2-J5-PDC patient-derived pancreatic carcinoma cell line growth inhibition [KRAS2]
Conditions: for IC50: curve of first compound; for viability, T/C: stronger effect = lower value
Summary of the method: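 Combination screen of spheroid viability in tumor-cell co-cultures with endothelial (HUVEC) and mesenchymal stem cell stroma. Each agent was tested in half-log dilutions, topping at clinical Cmax or at 10 microM without a known Cmax.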

[1] = second compound 0.0316 µM, first compound 0.000316 µM
[2] = second compound 0.0316 µM, first compound 0.001 µM
[3] = second compound 0.0316 µM, first compound 0.00316 µM
[4] = second compound 0.0316 µM, first compound 0.01 µM
[5] = second compound 0.0316 µM, first compound 0.0316 µM
[6] = second compound 0.1 µM, first compound 0.000316 µM
[7] = second compound 0.1 µM, first compound 0.001 µM
[8] = second compound 0.1 µM, first compound 0.00316 µM
[9] = second compound 0.1 µM, first compound 0.01 µM
[10] = second compound 0.1 µM, first compound 0.0316 µM
[11] = second compound 0.316 µM, first compound 0.000316 µM
[12] = second compound 0.316 µM, first compound 0.001 µM
[13] = second compound 0.316 µM, first compound 0.00316 µM
[14] = second compound 0.316 µM, first compound 0.01 µM
[15] = second compound 0.316 µM, first compound 0.0316 µM
[16] = second compound 1 µM, first compound 0.000316 µM
[17] = second compound 1 µM, first compound 0.001 µM
[18] = second compound 1 µM, first compound 0.00316 µM
[19] = second compound 1 µM, first compound 0.01 µM
[20] = second compound 1 µM, first compound 0.0316 µM
[21] = second compound 3.16 µM, first compound 0.000316 µM
[22] = second compound 3.16 µM, first compound 0.001 µM
[23] = second compound 3.16 µM, first compound 0.00316 µM
[24] = second compound 3.16 µM, first compound 0.01 µM
[25] = second compound 3.16 µM, first compound 0.0316 µM
[26] = second compound 0.0316 µM, first compound 0.1 µM
[27] = second compound 0.1 µM, first compound 0.1 µM
[28] = second compound 0.316 µM, first compound 0.1 µM
[29] = second compound 1 µM, first compound 0.1 µM
[30] = second compound 3.16 µM, first compound 0.1 µM
[31] = second compound 0.0316 µM, first compound 0.316 µM
[32] = second compound 0.0316 µM, first compound 1 µM
[33] = second compound 0.0316 µM, first compound 3.16 µM
[34] = second compound 0.0316 µM, first compound 10 µM
[35] = second compound 0.1 µM, first compound 0.316 µM
[36] = second compound 0.1 µM, first compound 1 µM
[37] = second compound 0.1 µM, first compound 3.16 µM
[38] = second compound 0.1 µM, first compound 10 µM
[39] = second compound 0.316 µM, first compound 0.316 µM
[40] = second compound 0.316 µM, first compound 1 µM
[41] = second compound 0.316 µM, first compound 3.16 µM
[42] = second compound 0.316 µM, first compound 10 µM
[43] = second compound 1 µM, first compound 0.316 µM
[44] = second compound 1 µM, first compound 1 µM
[45] = second compound 1 µM, first compound 3.16 µM
[46] = second compound 1 µM, first compound 10 µM
[47] = second compound 3.16 µM, first compound 0.316 µM
[48] = second compound 3.16 µM, first compound 1 µM
[49] = second compound 3.16 µM, first compound 3.16 µM
[50] = second compound 3.16 µM, first compound 10 µM
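Note: viability read after seven days of drug exposure.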

CC(=O)Nc1cccc(-n2c(=O)n(C3CC3)c(=O)c3c(Nc4ccc(I)cc4F)n(C)c(=O)c(C)c32)c1 + C=CC(=O)N1CCN(c2nc(OCC3CCCN3C)nc3c2CCN(c2cccc4cccc(C)c24)C3)CC1CC#N
IC50 (second compound 0.0316 µM): 0.288 nM
IC50 (second compound 0.1 µM): 0.289 nM
IC50 (second compound 0.316 µM): 0.194 nM
IC50 (second compound 1 µM): 0.245 nM
IC50 (second compound 3.16 µM): < 0.1 nM
viability, T/C (second compound 0.0316 µM, first compound 0.0001 µM): 74.2%
viability, T/C [1]: 44.9%
viability, T/C [2]: 34.6%
viability, T/C [3]: 26.5%
viability, T/C [4]: 20.1%
viability, T/C [5]: 15%
viability, T/C (second compound 0.1 µM, first compound 0.0001 µM): 61.9%
viability, T/C [6]: 51.6%
viability, T/C [7]: 30.3%
viability, T/C [8]: 23.8%
viability, T/C [9]: 18.4%
viability, T/C [10]: 10.5%
viability, T/C (second compound 0.316 µM, first compound 0.0001 µM): 57.5%
viability, T/C [11]: 46.9%
viability, T/C [12]: 27.5%
viability, T/C [13]: 21.7%
viability, T/C [14]: 18.9%
viability, T/C [15]: 8.09%
viability, T/C (second compound 1 µM, first compound 0.0001 µM): 69.7%
viability, T/C [16]: 43.6%
viability, T/C [17]: 27.8%
viability, T/C [18]: 24.3%
viability, T/C [19]: 18.2%
viability, T/C [20]: 9.76%
viability, T/C (second compound 3.16 µM, first compound 0.0001 µM): 3.74%
viability, T/C [21]: 5.29%
viability, T/C [22]: 0.31%
viability, T/C [23]: 1.92%
viability, T/C [24]: 0.67%
viability, T/C [25]: 0.24%

CC(C)n1nc(-c2ccc3oc(N)nc3c2)c2c(N)ncnc21 + C=CC(=O)N1CCN(c2nc(OCC3CCCN3C)nc3c2CCN(c2cccc4cccc(C)c24)C3)CC1CC#N
IC50 (second compound 0.0316 µM): 9.53 nM
IC50 (second compound 0.1 µM): 6.8 nM
IC50 (second compound 0.316 µM): 6.39 nM
IC50 (second compound 1 µM): 3.33 nM
IC50 (second compound 3.16 µM): < 0.316 nM
viability, T/C [1]: 105%
viability, T/C [2]: 97.1%
viability, T/C [3]: 68.1%
viability, T/C [4]: 49.6%
viability, T/C [5]: 36.9%
viability, T/C [26]: 25.6%
viability, T/C [6]: 94.6%
viability, T/C [7]: 90.7%
viability, T/C [8]: 62.5%
viability, T/C [9]: 43.6%
viability, T/C [10]: 31.5%
viability, T/C [27]: 24.3%
viability, T/C [11]: 92.6%
viability, T/C [12]: 90.6%
viability, T/C [13]: 59%
viability, T/C [14]: 44.6%
viability, T/C [15]: 27%
viability, T/C [28]: 22.7%
viability, T/C [16]: 76.5%
viability, T/C [17]: 70.2%
viability, T/C [18]: 49.1%
viability, T/C [19]: 33.5%
viability, T/C [20]: 23.3%
viability, T/C [29]: 18.3%
viability, T/C [21]: 33.7%
viability, T/C [22]: 17.6%
viability, T/C [23]: 25.6%
viability, T/C [24]: 7.26%
viability, T/C [25]: 17%
viability, T/C [30]: 14.5%

COc1cc(Nc2ncc3c(n2)-c2ccc(Cl)cc2C(c2c(F)cccc2OC)=NC3)ccc1C(=O)O + C=CC(=O)N1CCN(c2nc(OCC3CCCN3C)nc3c2CCN(c2cccc4cccc(C)c24)C3)CC1CC#N
IC50 (second compound 0.0316 µM): < 31.6 nM
IC50 (second compound 0.1 µM): < 31.6 nM
IC50 (second compound 0.316 µM): < 31.6 nM
IC50 (second compound 1 µM): < 31.6 nM
IC50 (second compound 3.16 µM): < 31.6 nM
viability, T/C [5]: 41.5%
viability, T/C [26]: 33.7%
viability, T/C [31]: 50.5%
viability, T/C [32]: 46.2%
viability, T/C [33]: 38.5%
viability, T/C [34]: 40.5%
viability, T/C [10]: 51.1%
viability, T/C [27]: 28.1%
viability, T/C [35]: 38.4%
viability, T/C [36]: 36.3%
viability, T/C [37]: 38.9%
viability, T/C [38]: 38.2%
viability, T/C [15]: 48.5%
viability, T/C [28]: 27.2%
viability, T/C [39]: 31.6%
viability, T/C [40]: 38.8%
viability, T/C [41]: 33.8%
viability, T/C [42]: 42.2%
viability, T/C [20]: 28.8%
viability, T/C [29]: 28.7%
viability, T/C [43]: 29.1%
viability, T/C [44]: 27.7%
viability, T/C [45]: 26.9%
viability, T/C [46]: 32%
viability, T/C [25]: 1.52%
viability, T/C [30]: 1.29%
viability, T/C [47]: 0.17%
viability, T/C [48]: 6.1%
viability, T/C [49]: 1.44%
viability, T/C [50]: 0.25%

COc1cc2nccc(Oc3ccc(NC(=O)C4(C(=O)Nc5ccc(F)cc5)CC4)cc3)c2cc1OC + C=CC(=O)N1CCN(c2nc(OCC3CCCN3C)nc3c2CCN(c2cccc4cccc(C)c24)C3)CC1CC#N
IC50 (second compound 0.0316 µM): 8200 nM
IC50 (second compound 0.1 µM): 7660 nM
IC50 (second compound 0.316 µM): 6600 nM
IC50 (second compound 1 µM): 2680 nM
IC50 (second compound 3.16 µM): < 31.6 nM
viability, T/C [5]: 111%
viability, T/C [26]: 112%
viability, T/C [31]: 126%
viability, T/C [32]: 124%
viability, T/C [33]: 94.6%
viability, T/C [34]: 40.7%
viability, T/C [10]: 105%
viability, T/C [27]: 108%
viability, T/C [35]: 118%
viability, T/C [36]: 116%
viability, T/C [37]: 94.1%
viability, T/C [38]: 36.7%
viability, T/C [15]: 89.9%
viability, T/C [28]: 113%
viability, T/C [39]: 108%
viability, T/C [40]: 97.9%
viability, T/C [41]: 82.7%
viability, T/C [42]: 31.7%
viability, T/C [20]: 86.2%
viability, T/C [29]: 95%
viability, T/C [43]: 89.7%
viability, T/C [44]: 81.9%
viability, T/C [45]: 44.7%
viability, T/C [46]: 14.9%
viability, T/C [25]: 19.4%
viability, T/C [30]: 26.7%
viability, T/C [47]: 17.7%
viability, T/C [48]: 4.13%
viability, T/C [49]: 0.96%
viability, T/C [50]: 0.26%
